Results: ChEMBL document CHEMBL1152352, “Identification of a chromone-based retinoid containing a polyolefinic side chain via facile synthetic routes” (Bioorg Med Chem Lett, 2009)

How the values were obtained:
[1] = target: T1, Retinoic acid receptor alpha (Homo sapiens, UniProt P10276); assay: Displacement of radioligand from RARalpha receptor
T1 sequence (P10276 whole entry): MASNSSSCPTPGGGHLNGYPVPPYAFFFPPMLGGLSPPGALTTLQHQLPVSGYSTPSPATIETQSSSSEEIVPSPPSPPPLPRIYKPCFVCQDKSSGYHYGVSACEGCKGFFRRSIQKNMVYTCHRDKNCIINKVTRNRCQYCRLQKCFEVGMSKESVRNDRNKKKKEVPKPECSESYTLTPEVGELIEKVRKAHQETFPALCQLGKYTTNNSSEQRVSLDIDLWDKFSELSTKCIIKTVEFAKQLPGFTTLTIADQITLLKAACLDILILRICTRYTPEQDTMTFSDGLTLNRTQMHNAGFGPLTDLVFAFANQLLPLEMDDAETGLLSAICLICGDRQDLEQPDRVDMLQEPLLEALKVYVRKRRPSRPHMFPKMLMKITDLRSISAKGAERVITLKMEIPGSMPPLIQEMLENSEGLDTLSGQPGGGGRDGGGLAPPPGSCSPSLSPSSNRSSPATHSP

[2] = target: T2, Retinoic acid receptor beta (Homo sapiens, UniProt P10826); assay: Displacement of radioligand from RARbeta receptor
T2 sequence (P10826 whole entry): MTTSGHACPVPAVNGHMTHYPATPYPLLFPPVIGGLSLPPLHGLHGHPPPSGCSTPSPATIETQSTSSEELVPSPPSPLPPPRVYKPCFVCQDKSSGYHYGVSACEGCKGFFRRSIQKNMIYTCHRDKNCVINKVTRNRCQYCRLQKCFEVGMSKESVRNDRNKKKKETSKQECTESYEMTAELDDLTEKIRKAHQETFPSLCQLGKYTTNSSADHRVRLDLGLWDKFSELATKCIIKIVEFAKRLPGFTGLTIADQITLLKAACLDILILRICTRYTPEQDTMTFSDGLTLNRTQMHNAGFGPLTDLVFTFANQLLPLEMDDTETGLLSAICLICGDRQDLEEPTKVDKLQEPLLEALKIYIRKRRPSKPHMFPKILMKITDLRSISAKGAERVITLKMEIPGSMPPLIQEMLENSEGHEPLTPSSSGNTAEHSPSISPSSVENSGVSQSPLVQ

[3] = target: T3, Retinoic acid receptor gamma (Homo sapiens, UniProt P13631); assay: Displacement of radioligand from RARgamma receptor
T3 sequence (P13631 whole entry): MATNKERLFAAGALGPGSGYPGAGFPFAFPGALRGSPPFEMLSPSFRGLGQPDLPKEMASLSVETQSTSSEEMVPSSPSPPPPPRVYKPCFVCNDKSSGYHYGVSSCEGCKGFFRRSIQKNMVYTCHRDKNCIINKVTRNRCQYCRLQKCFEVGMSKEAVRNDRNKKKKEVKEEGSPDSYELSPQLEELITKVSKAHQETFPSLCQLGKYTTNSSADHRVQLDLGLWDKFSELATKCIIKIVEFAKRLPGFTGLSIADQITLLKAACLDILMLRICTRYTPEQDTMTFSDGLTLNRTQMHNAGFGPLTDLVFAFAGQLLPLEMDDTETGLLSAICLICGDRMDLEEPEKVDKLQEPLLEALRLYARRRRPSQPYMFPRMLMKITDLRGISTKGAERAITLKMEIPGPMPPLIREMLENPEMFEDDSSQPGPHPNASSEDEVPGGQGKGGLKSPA

Compound: CC(=C\c1coc2cc3c(cc2c1=O)C(C)(C)CCC3(C)C)/C=C(\C)C(=O)O
- IC50 [1]: 15 nM
- IC50 [2]: 40 nM
- IC50 [3]: 40 nM
